Source: patent US20260297042A1, “BIARYLAMIDE DERIVATIVES AND THEIR USE AS PKMYT1 INHIBITORS” (CANCER RESEARCH TECHNOLOGY LIMITED, priority 2023, published 2026)
pIC50: −log10 of the molar value.

Assays:
KYSE-30 cells = test: Cancer cell line proliferation assay, ATP-based cell viability (Cell Titre Glow), KYSE-30 (normal CCNE1); details: Homo sapiens, KYSE-30 cells (normal CCNE1), concentration that achieves 50% cell growth proliferation inhibition, read-out: KYSE30 Gl50
Experimental: (§1) Cancer cell lines with either normal (KYSE-30) or amplified CCNE1 expression (OVCAR 3 —ovarian cancer) were evaluated for their sensitivity to PKMYT1 inhibitors using Cell Titre Glow assay (Promega G7573) as endpoint to assess cell proliferation. The luminescence signal was read on a PHERAStar FS microplate reader (BMG Labtech). Data analysis was performed using Microsoft Excel® and Gl50 (concentration that achieves 50% cell growth proliferation inhibition) estimates generated with GraphPad Prism v9.

WEE1 = molecular target: T1, WEE1 (Homo sapiens, UniProt P30291); test: Selectivity versus WEE1 assay (ADP-Glo enzymatic assay); assay type: biochemical; details: for pIC50: ADP-Glo; for PKMYT1 vs. WEE1 selectivity: fold difference in selectivity for PKMYT1 over WEE1
T1 construct: purchased Thermo Fisher PR7373A
How it was run: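 WEE1 at 15 nM final in 50 mM HEPES pH 7.5, 10 mM MgCl2, 1 mM EGTA, 0.01% Brij-35, 1% DMSO; reaction started with 30 µM ATP, 60 min at 26 °C. ADP-Glo luminescence; IC50 from dose-response curves, replicates within 3-fold and r2 >0.9.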

OVCAR 3 cells = test: Cancer cell line proliferation assay, ATP-based cell viability (Cell Titre Glow), OVCAR 3 (CCNE1-amplified); details: for Selectivity ratio KYSE30 Gl50 vs. OVCAR3 Gl50: KYSE30 (normal CCNE1) GI50 vs. OVCAR 3 (CCNE1-amplified) GI50
Experimental: as §1

Human PKMYT1 = molecular target: T2, Human PKMYT1 (Homo sapiens, UniProt Q99640); test: PKMYT1 biochemical ADP-Glo enzymatic assay; details: ADP-Glo
T2 construct: Human PKMYT1 75-362 was cloned as a TEV cleavable 6xHis fusion; 6xHis (TEV cleavable) (cleaved yes); made in house; host or cells: bacterial cells
T2 sequence (Q99640 75-362): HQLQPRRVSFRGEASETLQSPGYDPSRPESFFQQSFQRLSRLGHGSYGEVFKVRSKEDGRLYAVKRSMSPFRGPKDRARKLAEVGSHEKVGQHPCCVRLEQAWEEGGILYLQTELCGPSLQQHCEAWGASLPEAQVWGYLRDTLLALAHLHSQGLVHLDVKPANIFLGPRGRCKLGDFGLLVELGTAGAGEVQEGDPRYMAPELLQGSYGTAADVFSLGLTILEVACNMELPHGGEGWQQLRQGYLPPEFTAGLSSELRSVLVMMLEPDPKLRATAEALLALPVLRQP
How it was run: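 Purified untagged human PKMYT1 75-362 at 15 nM final was tested in HEPES pH 7.5 with MgCl2, EGTA, Brij-35 and 1% DMSO. Intrinsic ATPase activity was measured with 500 uM ATP over 60 min at 26° C. ADP-Glo luminescence was read and IC50 fitted from 10-point, 3-fold dilution curves.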

[1] = PKMYT1 kinase domain 15 nM, banded values
[2] = 15 nM WEE1, 60 minutes at 26° C., banded
[3] = banded, ">N" = at least in this band but could be higher
[4] = 15 nM PKMYT1 kinase domain, 500 µM ATP, 60 minutes at 26° C., banded

T1 sequence (P30291 whole entry): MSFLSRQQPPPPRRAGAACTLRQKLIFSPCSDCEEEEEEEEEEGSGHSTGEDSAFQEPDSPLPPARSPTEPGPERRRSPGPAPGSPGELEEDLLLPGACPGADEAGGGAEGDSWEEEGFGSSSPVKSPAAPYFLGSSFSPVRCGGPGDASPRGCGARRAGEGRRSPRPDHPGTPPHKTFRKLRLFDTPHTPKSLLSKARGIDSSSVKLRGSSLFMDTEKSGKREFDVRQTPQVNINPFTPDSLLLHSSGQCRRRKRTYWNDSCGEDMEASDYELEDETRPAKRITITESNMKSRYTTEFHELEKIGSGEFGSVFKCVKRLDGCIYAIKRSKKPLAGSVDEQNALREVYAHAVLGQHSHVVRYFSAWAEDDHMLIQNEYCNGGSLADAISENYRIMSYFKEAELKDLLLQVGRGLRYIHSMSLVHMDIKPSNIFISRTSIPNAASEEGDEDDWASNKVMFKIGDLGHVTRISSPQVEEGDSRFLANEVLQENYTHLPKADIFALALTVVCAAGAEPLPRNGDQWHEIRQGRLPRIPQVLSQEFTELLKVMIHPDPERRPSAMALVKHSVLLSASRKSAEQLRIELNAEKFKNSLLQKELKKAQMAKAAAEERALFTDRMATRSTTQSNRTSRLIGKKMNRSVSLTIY

SMILES | GI50 (KYSE-30 cells) [nM] | pIC50 (WEE1; WEE1 15 nM, banded values) | PKMYT1 vs. WEE1 selectivity (WEE1; banded) | Selectivity ratio KYSE30 Gl50 vs. OVCAR3 Gl50 (OVCAR 3 cells) | pIC50 (Human PKMYT1; [1]) | pIC50 (WEE1; [2]) | PKMYT1 vs. WEE1 selectivity (WEE1; [3]) | pIC50 (Human PKMYT1; [4]) | GI50 (OVCAR 3 cells; Homo sapiens, OVCAR 3 cells (CCNE1-amplified), concentration that achieves 50% cell growth proliferation inhibition, read-out: OVCAR 3 Gl50) [nM]
COCCn1cc(C)c(Nc2ncc(C(=O)Nc3c(C)ccc(O)c3C)s2)n1 [BAA-490, N-(3-hydroxy-2,6-dimethylphenyl)-2-((1-(2-methoxyethyl)-4-methyl-1H-pyazol-3-yl)amino)thiazole-5-carboxamide] | > 5000 | 4.96 to 6.00 | X (100-<1000 fold) | Y (>20 fold) | > 7.30 | – | – | – | –
Cc1ccc(O)c(C)c1NC(=O)c1cnc(Nc2cccc(N3CCC(N)CC3)n2)s1 [BAA-274, 2-((6-(4-aminopiperidin-1-yl)pyridin-2-yl)amino)-N-(3-hydroxy-2,6-dimethylphenyl)thiazole-5-carboxamide] | 500 to 5000 | – | – | Y (>20 fold) | – | 4.96 to 6.00 | W (10-<100 fold) | > 7.30 | –
Cc1ccc(O)c(C)c1NC(=O)c1cnc(Nc2ccn(C3CCC3)n2)s1 [BAA-013, 2-[(1-cyclobutylpyrazol-3-yl)amino]-N-(3-hydroxy-2,6-dimethyl-phenyl)thiazole-5-carboxamide] | > 5000 | – | – | X (3-20 fold) | – | 4.96 to 6.00 | W (10-<100 fold) | > 7.30 | 500 to 5000
COC[C@@H]1CCCN1C(=O)Cn1cc(C)c(Nc2ncc(C(=O)Nc3c(C)ccc(O)c3C)s2)n1 [BAA-606, (S)-N-(3-hydroxy-2,6-dimethylphenyl)-2-((1-(2-(2-(methoxymethyl)pyrrolidin-1-yl)-2-oxoethyl)-4-methyl-1H-pyrazol-3-yl)amino)thiazole-5-carboxamide] | 500 to 5000 | 4.96 to 6.00 | X (100-<1000 fold) | Y (>20 fold) | > 7.30 | – | – | – | –
Cc1cn(CC(=O)N2CCCC2C)nc1Nc1ncc(C(=O)Nc2c(C)ccc(O)c2C)s1 (stereo not shown) [BAA-492, N-(3-hydroxy-2,6-dimethylphenyl)-2-((4-methyl-1-(2-(2-methylpyrrolidin-1-yl)-2-oxoethyl)-1H-pyrazol-3-yl)amino)thiazole-5-carboxamide] | > 5000 | 4.96 to 6.00 | X (100-<1000 fold) | Y (>20 fold) | > 7.30 | – | – | – | –
Cc1cn(-c2ncc(C(=O)Nc3c(C)ccc(O)c3C)s2)nc1Nc1ncc(C(=O)Nc2c(C)ccc(O)c2C)s1 [BAA-393, N-(3-hydroxy-2,6-dimethylphenyl)-2-((1-(5-((3-hydroxy-2,6-dimethylphenyl)carbamoyl)thiazol-2-yl)-4-methyl-1H-pyrazol-3-yl)amino)thiazole-5-carboxamide] | 500 to 5000 | < 4.96 | X (100-<1000 fold) | X (3-20 fold) | 6.00 to 7.30 | – | – | – | –
CCn1cc(C)c(Nc2ncc(C(=O)Nc3c(C)ccc(O)c3C)s2)n1 [BAA-477, 2-((1-ethyl-4-methyl-1H-pyrazol-3-yl)amino)-N-(3-hydroxy-2,6-dimethylphenyl)thiazole-5-carboxamide] | > 5000 | 4.96 to 6.00 | X (100-<1000 fold) | Y (>20 fold) | > 7.30 | – | – | – | –
Cc1ccc(O)c(C)c1NC(=O)c1cnc(Nc2ccn(CC(C)C)n2)s1 [BAA-016, N-(3-hydroxy-2,6-dimethyl-phenyl)-2-[(1-isobutylpyrazol-3-yl)amino]thiazole-5-carboxamide] | 500 to 5000 | – | – | X (3-20 fold) | – | 4.96 to 6.00 | W (10-<100 fold) | > 7.30 | –
Cc1ccc(O)c(C)c1NC(=O)c1cnc(Nc2cc(C(F)(F)F)nc(NCCC(C)(C)C)n2)s1 [BAA-322, 2-((2-((3,3-dimethylbutyl)amino)-6-(trifluoromethyl)pyrimidin-4-yl)amino)-N-(3-hydroxy-2,6-dimethylphenyl)thiazole-5-carboxamide] | 500 to 5000 | – | – | Y (>20 fold) | – | < 4.96 | X (100-<1000 fold) | 6.00 to 7.30 | –
Cc1cn(C)nc1Nc1ncc(C(=O)Nc2c(C)ccc(O)c2C)s1 [BAA-123, 2-[(1,4-dimethylpyrazol-3-yl)amino]-N-(3-hydroxy-2,6-dimethyl-phenyl)thiazole-5-carboxamide] | > 5000 | – | – | Y (>20 fold) | – | 4.96 to 6.00 | X (100-<1000 fold) | > 7.30 | –
Cc1cn(-c2ccncc2)nc1Nc1ncc(C(=O)Nc2c(C)ccc(O)c2C)s1 [BAA-372, N-(3-hydroxy-2,6-dimethylphenyl)-2-((4-methyl-1-(pyridin-4-yl)-1H-pyrazol-3-yl)amino)thiazole-5-carboxamide] | > 5000 | – | – | Y (>20 fold) | – | 6.00 to 7.30 | W (10-<100 fold) | > 7.30 | –
COc1cccc(Nc2ncc(C(=O)Nc3c(C)ccc(O)c3C)s2)n1 [BAA-416, N-(3-hydroxy-2,6-dimethylphenyl)-2-((6-methoxypyridin-2-yl)amino)thiazole-5-carboxamide] | 500 to 5000 | 4.96 to 6.00 | X (100-<1000 fold) | Y (>20 fold) | > 7.30 | – | – | – | –
Cc1ccc(O)c(C)c1NC(=O)c1cnc(Nc2ncnc3sccc23)s1 [BAA-447, N-(3-hydroxy-2,6-dimethylphenyl)-2-(thieno[2,3-d]pyrimidin-4-ylamino)thiazole-5-carboxamide] | > 5000 | 4.96 to 6.00 | X (100-<1000 fold) | Y (>20 fold) | > 7.30 | – | – | – | –
Cc1ccc(O)c(C)c1NC(=O)c1cnc(Nc2cccc(-c3ncccn3)n2)s1 [BAA-403, N-(3-hydroxy-2,6-dimethylphenyl)-2-((6-(pyrimidin-2-yl)pyridin-2-yl)amino)thiazole-5-carboxamide] | > 5000 | 6.00 to 7.30 | W (10-<100 fold) | Y (>20 fold) | > 7.30 | – | – | – | –
Cc1cn(-c2ccc(C(F)(F)F)nc2)nc1Nc1ncc(C(=O)Nc2c(C)ccc(O)c2C)s1 [BAA-367, N-(3-hydroxy-2,6-dimethylphenyl)-2-((4-methyl-1-(6-(trifluoromethyl)pyridin-3-yl)-1H-pyrazol-3-yl)amino)thiazole-5-carboxamide] | > 5000 | – | – | Y (>20 fold) | – | < 4.96 | X (100-<1000 fold) | 6.00 to 7.30 | –
Cc1ccc(O)c(C)c1NC(=O)c1cnc(Nc2cccc(-c3cnn(C(F)F)c3)n2)s1 [BAA-399, 2-((6-(1-(difluoromethyl)-1H-pyrazol-4-yl)pyridin-2-yl)amino)-N-(3-hydroxy-2,6-dimethylphenyl)thiazole-5-carboxamide] | 500 to 5000 | 4.96 to 6.00 | X (100-<1000 fold) | Y (>20 fold) | > 7.30 | – | – | – | –
Cc1cn(-c2cccnc2)nc1Nc1ncc(C(=O)Nc2c(C)ccc(O)c2C)s1 [BAA-371, N-(3-hydroxy-2,6-dimethylphenyl)-2-((4-methyl-1-(pyridin-3-yl)-1H-pyrazol-3-yl)amino)thiazole-5-carboxamide] | > 5000 | – | – | Y (>20 fold) | – | 4.96 to 6.00 | X (100-<1000 fold) | > 7.30 | –
CCN(CC)C(=O)C(C)n1nc(Nc2ncc(C(=O)Nc3c(C)ccc(O)c3C)s2)cc1C (stereo not shown) [BAA-509, 2-((1-(1-(diethylamino)-1-oxopropan-2-yl)-5-methyl-1H-pyrazol-3-yl)amino)-N-(3-hydroxy-2,6-dimethylphenyl)thiazole-5-carboxamide] | > 5000 | < 4.96 | X (100-<1000 fold) | Y (>20 fold) | 6.00 to 7.30 | – | – | – | –
